According to patent publication US4223041A, “Urea derivatives to treat anxiety and aggressivity” (Labaz, priority 1976, dated 1980):

How the values were obtained:
[1] = rota rod test (neurotoxicity); type: in vivo, mouse; conditions: for % of failures in rota rod test: mice, 30 min after administration
Procedure: The test used was that known as the rota rod test described by BOISSIER (Therapie 1958 XIII pp. 1074-1118).
This test aims at determining the ability of mice to coordinate their movements by seeing to what extent they can remain on a roller turning at a rate of 4 revolutions per minute for two minutes. The trial was carried out thirty minutes after administration by oral route of the compound to be studied and the percentage of failures was noted.
The value of this test is twofold. Failure on the part of the animals gives a very early indication of the slightest damage to the meuromuscular functions which cannot be discerned by any other means. Secondly, this test serves as an element of comparison for drawing up index figures involving the results obtained with other tests.

[2] = spontaneous motoricity in the mouse; type: in vivo
Text: This test is described in U.S. Pat. No. 3,929,869.

[3] = traction test (balance, muscular tonus and strength); conditions: mouse, in vivo; oral, mice, 60 minutes after administration; read-out: ED50 (dose which causes 50% failures in the traction test)
[4] = mouse, in vivo, po, 1000 mg/kg
Text: Finally, the hypnotic action of Compound A was studied in mice by means of the test of the posture reflex, the animals being kept under observation during the four hours following the oral administration of the product.

[5] = Four plates test (anxiolytic action); type: in vivo, mouse
Text: This test, which is specific to the anxiolytics, was undertaken with the mouse, thirty minutes after the oral administration of the compound to be studied.
It consists in placing mice in a box with fairly high walls, of which the bottom comprises four square plates. These plates, which all have the same dimensions, are separated from each other by a central axis and are alternately electrified by the positive and negative poles of a source of electric current. There is a space of a few millimeters between adjacent plates.
The mouse placed in this apparatus explores it and thus passes over the different plates in succession. Note is taken of the number of times each animal passes over the plates during one minute. When the current is switched on, the mouse passing over the plates receives an electric shock (80 V), which provokes a gradual decrease in the exploratory movements, and finally brings the animals to a complete stop.
Anxiolytic agents enable the animals to become more or less indifferent to the electric shock.
The percentage of protection against anxiety given by compounds of the invention was calculated by comparing the number of times the control animals passed over the plates when electrified with the number of times the treated animals passed over the electrified plates.

[6] = Aggressivity of the isolated mouse (antiaggressive activity); type: in vivo
Text: If a male mouse is isolated in a cage for three to four weeks, it will spontaneously attack any other animal of the same species which is placed in the same cage.
Mice wer isolated for the period of time required to render them spontaneously aggressive. Two mice, one rendered aggressive and one in a normal non-aggressive state, were then placed together and note was taken of the number of attacks by the aggressive mouse which occurred over a period of three minutes.
Each batch was composed of five pairs of animals.
The aggressive animals of each batch were then treated by oral route with the compound to be studied which was administered in such a way that the aggressive animals of each batch received a higher dose than those of the preceding batch.
Thirty minutes after administration, the couples were placed together again for a further three minutes and the number of attacks noted.

[7] = Action with respect to tremorine (cholinolytic properties); type: in vivo, mouse
Procedure: This test has been described by EVERETT (Nature, 1956, 177-238)
When injected into mice, tremorine produces peripheral cholinergic effects i.e. weeping, hypersalivation, sedation, diarrhea as well as central cholinergic effects i.e. tremors, akinesia.
Batches of 10 mice separated into individual cages, were given the compound to be studied, by oral route, 30 minutes before administration of an intraperitoneal dose of 100 mg/kg of tremorine.
Note was then taken in each batch of the percentage of animals presenting the various symptoms of tremorine-induced poisoning since at such a dose of tremorine 100% of the control animals are poisoned.
The results hereunder are expressed in percentage of mice protected against tremor at the dose of the compound of the invention which was administered: […]

Acute toxicity in mice = conditions: mouse, in vivo
Procedure: Acute toxicity was determined on Swiss E.O.P.S. mice, by oral route, using the technique of LITCHFIELD and WILCOXON (J. Pharmacol. Exp. Ther. […], 96, 99).

Acute toxicity in rats = conditions: rat, in vivo
[8] = Action on the cardiovascular and respiratory system; type: in vivo, rat
[9] = Influence on acetylcholine-induced hypotension and bradycardia; type: in vivo; conditions: 100 mg/kg i.p., rat
Procedure: Similarly, at a dose of 100 mg/kg by intraperitoneal route, the preferred compound of the invention has no influence on acetylcholine-induced hypotension and bradycardia in the rat.

[10] = Potentiation of barbiturates, tranquillizers and ethanol; type: in vivo
Text: Additional pharmacological tests carried out with the preferred compound of the invention have shown that a non-sedative dose of this compound potentiates the hypnotic effect of the barbiturates as well as the sedative effect of tranquillizers such as meprobamate and diazepam.

[11] = Anxiolytic and antiaggressive properties and separation from sedation (general statements); conditions: in vivo
[12] = comparison at 25%-protection dose of four plates test, 175 mg/kg
[13] = 3000 mg/kg oral, 8-day observation, read-out: deaths
[14] = 100 and 200 mg/kg i.p., anaesthetized rat

CCCC(CCC)(CCC)NC(N)=O [Compound A, 1-(1,1-Di-n-propyl-n-butyl)-urea]
% of failures in rota rod test ([1]; 175 mg/kg oral): 0%
% of failures in rota rod test ([1]; 600 mg/kg oral): 30%
sedative effect relative to reference products ([1]; at ED25 of four plates test): least sedative
failures in the rota rod test ([1]; at the dose which provokes a 60%-decrease in the number of combats): no failure
Rota rod (% of failures) [1, 12]: 0%
decrease in spontaneous motoricity ([2]; 175 mg/kg oral, mouse, 60 minutes, non-significant): 12%
Spontaneous motoricity (% of decrease) [2, 12]: 12%
decrease in spontaneous motoricity at dose giving 80% reduction in combats ([2]; dose producing 80% decrease in the number of combats): without any action on spontaneous motoricity
TD50 at 1 h [3]: 600 mg/kg
loss of the posture reflex [4]: no loss of the posture reflex
inhibition in vivo at 175 mg/kg ([5]; 0.5 h, 175 mg/kg oral, mouse, 30 min after administration, read-out: % of protection against anxiety): 25%
positive result in four plates test without sedative effect ([5]; at ED25 of four plates test): without any sedative effect
sedative effects at antiaggressive dose ([6]; 100 mg/kg oral): entirely devoid of any sedative effects
ED50 ([6]; 0.5 h, oral, isolated mouse, 30 min after administration, read-out: ED50 (50% fewer attacks)): 142 mg/kg
minimal effective dose ([6]; 0.5 h, oral, isolated mouse, read-out: dose from which antiaggressive action is exerted): 100 mg/kg
% of protection against tremor ([7]; 200 mg/kg oral, mice, 30 min before 100 mg/kg i.p. tremorine): 0%
protection against central or peripheral cholinergic effects provoked by tremorine ([7]; 100, 300, 400 and 500 mg/kg oral): did not protect any animal
mortality at 192 h (Acute toxicity in mice; [13]): 5%
LD50 (Acute toxicity in mice; oral): > 3000 mg/kg
mortality at 192 h (Acute toxicity in rats; [13]): 10%
LD50 at 192 h (Acute toxicity in rats; oral): > 3000 mg/kg
cardiac frequency [8, 14]: does not modify
respiratory frequency [8, 14]: does not modify
systemic arterial blood pressure [8, 14]: does not modify
action on the cardiovascular or respiratory system ([8]; rat, in vivo): no appreciable action
influence on acetylcholine-induced bradycardia [9]: no influence
influence on acetylcholine-induced hypotension [9]: no influence
potentiation of the effects of ethanol ([10]; in vivo): slight potentiation
hypnotic effect of the barbiturates ([10]; non-sedative dose): potentiates
sedative effect of tranquillizers such as meprobamate and diazepam ([10]; non-sedative dose): potentiates
anxiolytic and antiaggressive activity (in words) [11]: most outstanding anxiolytic and antiaggressive properties
